From ChEMBL document CHEMBL1255178, “4-methylpteridinones as orally active and selective PI3K/mTOR dual inhibitors” (Bioorg Med Chem Lett, 2010)

Legend:
[1] = target: Serine/threonine-protein kinase mTOR (Homo sapiens, UniProt P42345)
[2] = Antitumor activity against human U87 cells xenografted in mouse at 3 mg/kg, po after 10 days; format: functional, U-87MG ATCC
[3] = Antitumor activity against human U87 cells xenografted in mouse at 10 mg/kg, po after 10 days; format: functional, U-87MG ATCC
[4] = Antitumor activity against human U87 cells xenografted in mouse at 20 mg/kg, po after 10 days; format: functional, U-87MG ATCC

SMILES | Ki [1] | further results
COc1ccc(-c2cc3c(C)nc(N)nc3n(C(C)C)c2=O)cn1 | 5 nM | 
COc1ccc(-c2cc3c(OC)nc(N)nc3n(C(C)C)c2=O)cn1 | > 4000 nM | 
Cc1nc(N)nc2c1nc(-c1ccn[nH]1)c(=O)n2C(C)C | 6 nM | 
Cc1nc(N)nc2c1nc(-c1cnn[nH]1)c(=O)n2C(C)C | 113 nM | 
COc1ncc(-c2nc3c(C)nc(N)nc3n(C(C)C)c2=O)cn1 | 18 nM | 

Now from value to compound, other results behind:

Ki [1] | SMILES | further results
6.8 nM | COc1ccc(-c2nc3c(C)nc(N)nc3n([C@H]3CC[C@H](O)CC3)c2=O)cn1 | Activity [2]: 11%; Activity [3]: 58%; Activity [4]: 75%
5 nM | Cc1ccc(-c2nc3c(C)nc(N)nc3n(C3CCOCC3)c2=O)cn1 | 
0.85 nM | Cc1ccc(-c2nc3c(C)nc(N)nc3n([C@H]3CC[C@H](O)CC3)c2=O)cn1 | 
5.11 nM | Cc1ccc(-c2nc3c(C)nc(N)nc3n([C@H]3CC[C@H](OCCO)CC3)c2=O)cn1 | 
0.8 nM | Cc1nc(N)nc2c1nc(-c1cc[nH]n1)c(=O)n2C1CCOCC1 | 
